Measurements reported in US4451485A, “Treatment of cardio-vascular diseases with 3-(2,2,2-trimethylhydrazinium) propionate dihydrate” (Institu Organicheskogo Sinteza Akademii Nauk Latviiskoi SSR, priority 1981, dated 1984).

How the values were obtained:
[1] = Efficiency in extrasystolic arrhythmia in patients, intravenous; assay type: in vivo; details: 1 ml of a 40% solution intravenous; 7 patients
Experimental: The antianginal and antiarrhythmic effects of the preparation according to the present invention were evaluated with the use of the injection pharmaceutical form of the preparation administered intravenously in an amount of 0.2 to 0.4 g based on the active ingredient.
The preparation efficiency in the case of extrasystolic arrhythmia was studied on 7 patients.
The intravenous administration of the preparation (1 ml of a 40% solution) arrested the rhythm disorder for 5-20 minutes.

[2] = Strophanthin arrhythmia in guinea pigs (450 μg/kg); assay type: in vivo
Experimental: As the third model of arrhythmia, there was used strophanthin arrhythmia in guinea pigs. […] Against the background of arrhythmia the test preparations were administered intravenously.

[3] = Effect on Strophanthin K arrhythmia in narcotized guinea pigs (500 μg/kg); assay type: in vivo
Experimental: After the administration of the preparation at a dose of 5 mg/kg the regular synusal rhythm was retained for 12±5 minutes on the average, whereafter arrhythmia was gradually renewed, but it could be again eliminated by a repeated administration of the preparation at a dose of 2-5 mg/kg. In such cases the sinusal rhythm was retained for 15 to 30 minutes and in the majority of tests arrhythmia never renewed. Furthermore, an experiment was carried out on narcotized guinea pigs with a mass of 600-710 g to which Strophanthin -K was administered into the femoral vein at a total dose of 500 μg/kg.
The preparation based on 3-(2,2,2-trimethylhydrazonium)propionate was intravenously administered against the background of arrhythmia in the test group.
The graph illustrates the recording of ECG of a guinea pig.
The effect of compound I on Strophanthin arrhythmia in guinea pigs.

[4] = Vessel wall irritation and allergenic capacity; assay type: in vivo
in vivo = assay type: in vivo
[5] = Clinical study in patients with ischemic heart disease, peroral, 4 weeks; assay type: in vivo, men and women (patients with IHD); details: for hemodynamic impact: before treatment 14.6 + 1.2; for pulse pressure: before treatment 47.6 + 0.6; for isometric contraction: before treatment 53 + 2; for asynchron. contraction: before treatment 56 + 2; for distolic pressure: before treatment 68.2 + 0.6; for heart rate: before treatment 72.3 + 1.5; for average dynamic pressure: before treatment 89.7 + 1.2; for tension period: before treatment 109 + 4; for lateral systolic pressure: before treatment 115.8 + 0.5; for final systolic pressure: before treatment 130.4 + 2.0; for expulsion phase: before treatment 222 + 4; for rate of heart relaxation: before treatment 250 + 9; for volume of heart ejection: before treatment 315 + 15; for diastol.: before treatment 499 + 14; for involution period: before treatment 830 + 26; for rate of pressure raise: before treatment 1,188 + 30
Excerpt: The following hemodynamic parameters were studied: rate of the heart's beat (RHB), electrocardiogram (ECG), all types of arterial pressure with the curve recording on a Mechanocardiograph 063 (Savitsky's model), beat ejection according to the Wremser-Ranke method, speed of pulse wave propagation, phase analysis of the left ventricle systole on an instrument Mingograph M-34, as well as amplitude time parameters (volume rate of ejection VRE, speed of pressure growth (SPG), rate of heart relaxation (RHR)).
For evaluation of contraction properties of myocardium separately during its systolic and diastolic periods of contraction there were used amplitude-time characteristics rate of heart ejection (RHE), rate of pressure rise (RPR) and rate of heart relaxation (RHR).
The rate of heart ejection (RHE) is determined by the formula: (BV6/E), wherein BV--beat volume in ml, E--time of the expulsion phase in seconds.
The rate of pressure rise is determined by the formula: [formula] wherein DP--diastolic pressure in mm, Hg, 5--conventional value of the final diastolic pressure in the aorta, IC--isometric contraction. RPR characterized contractive properties of the myocardium during the period of closed valves and its ability to rapidly surpass the value of pressure in the aorta for opening of the aortic valves.
The rate of heart relaxation (RHR) characterizes activity of the myocardium at the moment of diastole and is determined by the formula [formula] wherein SP--systolic pressure in the brachial artery in mm Hg, 5--conventional value of the final diastolic pressure in the aorta, D--duration of the diastolic period in seconds.

[6] = Aconitine model of arrhythmia in white rats; assay type: in vivo
Experimental: For the comparison of preparations, as the criterion of the range of therapeutic effect, there was used the ratio of the half-lethal dose to the half-effective dose (LD50 /ED50) which was referred to as the antiarrhythmic index. […] The comparative study of the antiarrhythmic activity of pharmaceutical preparations using an acotine model of arrhythmia was effected in experiments on white rats weighing 190-240 g. The test preparations were administered intraperitoneally 10-40 minutes before administration of aconitine.

For C[N+](C)(C)NCCC(=O)[O-] [3-(2,2,2-trimethylhydrazinium)propionate], which “Duration of arrest of the rhythm disorder” value [1] is on record?
The value was 5 to 20 min.

What about the ED50 ([2]; Cavia porcellus, intravenous, read-out: ED50, Strophanthin arrhythmia in guinea pigs) of the same compound?
Its ED50 is 7.8 ± 2.3 mg/kg.

What about the “Antiarrhythmic index LD50/ED50, Strophanthin arrhythmia in guinea pigs” value ([2]; guinea pig, in vivo) of the same compound?
Its value is 568.

What about the “Duration for which Strophanthin-induced arrhythmia is cut short / ECG improved” value ([2]; intravenous) of the same compound?
Its value is 5 to 20 min.

What about the “Effect on atrio-ventricular block” value ([3]; 2-5 mg/kg, timely administration, some cases) of the same compound?
Its value is “possible to also eliminate the atrio-ventricular block”.

What about the “Changes in the complex QRST and atrial fibrillation” value ([3]; intravenous) of the same compound?
Its value is “The changes in the complex QRST were reduced and the atrial fibrillation disappeared”.

And the “Effect on ventricular arrhythmia” value ([3]; intravenous)?
Its value is “temporarily arrested the ventricular arrhythmia”.

What about the “Time to arrest of ventricular arrhythmia” value ([3]; intravenous) of the same compound?
Its value is 2 to 3 min.

And the “Irritation of vessel walls” value ([4]; intravenous)?
Its value is “does not cause irritation of vessel walls”.

And the Allergic responses ([4]; intravenous and peroral, single or up to 30 days)?
Its Allergic responses is “nor does it cause allergic responses”.

What about the LD50 (in vivo; mouse, in vivo, ip, read-out: Acute toxicity, LD50) of the same compound?
The LD50 was 7850 mg/kg.

What about the “Toxicity lower than that of carbocromene” value (in vivo; vs carbocromene) of the same compound?
The value was 12 times.

And the hemodynamic impact ([5]; 1st week)?
Its hemodynamic impact is 18.2 + 1.0.

And the pulse pressure ([5]; 1st week)?
Its pulse pressure is 46.5 + 1.1.

And the isometric contraction ([5]; 1st week)?
The isometric contraction was 49 + 3 millisec.

And the asynchron. contraction ([5]; 1st week)?
Its asynchron. contraction is 55 + 4.

And the distolic pressure ([5]; 1st week)?
Its distolic pressure is 69.9 + 1.3.

And the heart rate ([5]; 1st week)?
Its heart rate is 67.8 + 1.8 beat/min.

And the average dynamic pressure ([5]; 1st week)?
Its average dynamic pressure is 90.6 + 0.7.

What about the tension period ([5]; 1st week) of the same compound?
Its tension period is 104 + 2 milliseconds.

What about the lateral systolic pressure ([5]; 1st week) of the same compound?
Its lateral systolic pressure is 116.4 + 2.1.

And the final systolic pressure ([5]; 1st week)?
The final systolic pressure was 134.6 + 1.6 mm/Hg.

What about the expulsion phase ([5]; 1st week) of the same compound?
The expulsion phase was 225 + 2 milliseconds.

What about the “rate of heart relaxation” value ([5]; 1st week) of the same compound?
Its value is 238 + 10 mm Hg/sec.

And the “volume of heart ejection” value ([5]; 1st week)?
Its value is 320 + 23 ml/sec.

What about the diastol. ([5]; 1st week) of the same compound?
Its diastol. is 543 + 21 milliseconds.

And the involution period ([5]; 1st week)?
Its involution period is 873 + 33.

And the “rate of pressure raise” value ([5]; 1st week)?
The value was 1,326 + 45 mm Hg/sec.

And the hemodynamic impact ([5]; 2nd week)?
Its hemodynamic impact is 24.6 + 0.7.

What about the pulse pressure ([5]; 2nd week) of the same compound?
The pulse pressure was 48.6 + 1.6.

What about the isometric contraction ([5]; 2nd week) of the same compound?
Its isometric contraction is 46 + 4 millisec.

And the asynchron. contraction ([5]; 2nd week)?
Its asynchron. contraction is 54 + 2.

What about the distolic pressure ([5]; 2nd week) of the same compound?
The distolic pressure was 70.3 + 0.9.

And the heart rate ([5]; 2nd week)?
Its heart rate is 64.3 + 1.3 beat/min.

What about the average dynamic pressure ([5]; 2nd week) of the same compound?
The average dynamic pressure was 91.2 + 1.2.

What about the tension period ([5]; 2nd week) of the same compound?
The tension period was 100 + 4 milliseconds.

What about the lateral systolic pressure ([5]; 2nd week) of the same compound?
Its lateral systolic pressure is 118.9 + 1.7.

And the final systolic pressure ([5]; 2nd week)?
Its final systolic pressure is 143.5 + 1.8 mm/Hg.

What about the expulsion phase ([5]; 2nd week) of the same compound?
Its expulsion phase is 230 + 3 milliseconds.

What about the “rate of heart relaxation” value ([5]; 2nd week) of the same compound?
Its value is 229 + 8 mm Hg/sec.

And the “volume of heart ejection” value ([5]; 2nd week)?
The value was 322 + 13 ml/sec.

And the diastol. ([5]; 2nd week)?
The diastol. was 603 + 21 milliseconds.

What about the involution period ([5]; 2nd week) of the same compound?
The involution period was 933 + 42.

What about the “rate of pressure raise” value ([5]; 2nd week) of the same compound?
The value was 1,473 + 130 mm Hg/sec.

And the hemodynamic impact ([5]; 3rd week)?
The hemodynamic impact was 24.9 + 1.5.

What about the pulse pressure ([5]; 3rd week) of the same compound?
The pulse pressure was 47.8 + 1.4.

What about the isometric contraction ([5]; 3rd week) of the same compound?
The isometric contraction was 43 + 2 millisec.

And the asynchron. contraction ([5]; 3rd week)?
The asynchron. contraction was 56 + 4.

What about the distolic pressure ([5]; 3rd week) of the same compound?
Its distolic pressure is 72.3 + 1.4.

What about the heart rate ([5]; 3rd week) of the same compound?
The heart rate was 60.1 + 1.6 beat/min.

What about the average dynamic pressure ([5]; 3rd week) of the same compound?
Its average dynamic pressure is 92.0 + 1.8.

And the tension period ([5]; 3rd week)?
Its tension period is 99 + 3 milliseconds.

What about the lateral systolic pressure ([5]; 3rd week) of the same compound?
The lateral systolic pressure was 120.1 + 1.4.

And the final systolic pressure ([5]; 3rd week)?
The final systolic pressure was 145.0 + 2.4 mm/Hg.

What about the expulsion phase ([5]; 3rd week) of the same compound?
The expulsion phase was 232 + 4 milliseconds.

And the “rate of heart relaxation” value ([5]; 3rd week)?
The value was 209 + 8 mm Hg/sec.

What about the “volume of heart ejection” value ([5]; 3rd week) of the same compound?
Its value is 374 + 14 ml/sec.

What about the diastol. ([5]; 3rd week) of the same compound?
The diastol. was 669 + 14 milliseconds.

What about the involution period ([5]; 3rd week) of the same compound?
The involution period was 1000 + 42.

What about the “rate of pressure raise” value ([5]; 3rd week) of the same compound?
The value was 1,581 + 54 mm Hg/sec.

What about the hemodynamic impact ([5]; 4th week) of the same compound?
Its hemodynamic impact is 25.0 + 0.7.

And the pulse pressure ([5]; 4th week)?
The pulse pressure was 53.6 + 1.2.

And the isometric contraction ([5]; 4th week)?
The isometric contraction was 33 + 2 millisec.

What about the asynchron. contraction ([5]; 4th week) of the same compound?
Its asynchron. contraction is 55 + 3.

What about the distolic pressure ([5]; 4th week) of the same compound?
The distolic pressure was 72.0 + 1.8.

And the heart rate ([5]; 4th week)?
Its heart rate is 62.2 + 1.4 beat/min.

And the average dynamic pressure ([5]; 4th week)?
Its average dynamic pressure is 92.2 + 1.0.

And the tension period ([5]; 4th week)?
The tension period was 88 + 2 milliseconds.

What about the lateral systolic pressure ([5]; 4th week) of the same compound?
Its lateral systolic pressure is 125.6 + 0.7.

What about the final systolic pressure ([5]; 4th week) of the same compound?
Its final systolic pressure is 150.6 + 2.7 mm/Hg.

What about the expulsion phase ([5]; 4th week) of the same compound?
Its expulsion phase is 235 + 3 milliseconds.

And the “rate of heart relaxation” value ([5]; 4th week)?
The value was 226 + 12 mm Hg/sec.

And the “volume of heart ejection” value ([5]; 4th week)?
The value was 357 + 17 ml/sec.

And the diastol. ([5]; 4th week)?
Its diastol. is 642 + 14 milliseconds.

And the involution period ([5]; 4th week)?
Its involution period is 965 + 21.

What about the “rate of pressure raise” value ([5]; 4th week) of the same compound?
The value was 2,030 + 68 mm Hg/sec.

And the Arterial pressure ([5]; peroral)?
Its Arterial pressure is “growth of all types of AP”.

And the Electrocardiographic findings ([5]; peroral)?
The Electrocardiographic findings was “slight decrease of the rate of the heart's beat, disappearance of auricular and ventricular extrasystoles, reinversion of the T ripple and increase of its positive amplitude”.

What about the “Phase analysis of the left ventricle” value ([5]; peroral, during the treatment) of the same compound?
Its value is “the involution period T was definitely increased, the phase of expulsion E was reduced, the period of tension PT shortened”.

What about the “Improvement of patients' state” value ([5]; peroral, first week) of the same compound?
The value was “considerable improvement of the patients' state of health”.

What about the ED50 ([6]; Rattus norvegicus, ip, read-out: ED50, aconitine arrhythmia in rats) of the same compound?
Its ED50 is 12.5 ± 2.5 mg/kg.

And the “Antiarrhythmic index LD50/ED50, aconitine arrhythmia in rats” value ([6]; rat, in vivo)?
The value was 354.
